# Like-named read-outs stand apart in the source and are kept apart here.
# Tests used:
# HeLa (human cervical) = test: Cytotoxicity, fluorometric cell viability assay (resazurin), HeLa; assay type: cell-based; details: read-out: IC50 (μM) HeLa
# Experimental: (§1) HeLa and CT-26 cell lines were cultured in DMEM media (Gibco) supplemented with 10% of fetal calf serum (Gibco). CT-26 LUC cell line was cultured in DMEM media (Gibco) supplemented with 10% of fetal calf serum (Gibco) and 1% Genticin. RPE-1 cell line was cultured in DMEM/F-12 media (Gibco) supplemented with 10% of fetal calf serum. […] The resistance of A2780 cis was maintained by cisplatin treatment (1 μM) for one week every month. […] U87 cell line was cultured in MEM media (Gibco) supplemented with 10% of fetal calf serum (Gibco) and 1% of non-essential amino acid mixture (Gibco). Cell lines were complemented with 100 U/ml penicillin-streptomycin mixture (Gibco) and maintained in humidified atmosphere at 37° C. and 5% of CO2.
# (§2) Cytotoxicity of the tested Ru compounds according to the present invention was assessed by a fluorometric cell viability assay using Resazurin (ACROS Organics). […] After 24 h, cells were treated with increasing concentrations of the compounds. Compounds dilutions were prepared as follows: 2.5 mM stock in DMSO was further diluted to 100 μM with media and then filtrated. After 48 h incubation, medium was removed, and 100 μl of complete medium containing resazurin (0.2 mg/ml final concentration) was added. […] IC50 values were then calculated using GraphPad Prism software.
# [1] = tested on: A2780 (human ovarian carcinoma); test: Cytotoxicity, fluorometric cell viability assay (resazurin), A2780; assay type: cell-based; details: read-out: IC50 (μM) A2780
# Experimental: as §1, §2
# [2] = tested on: A2780 ADR (human doxorubicin resistant ovarian carcinoma); test: Cytotoxicity, fluorometric cell viability assay (resazurin), A2780 ADR; assay type: cell-based
# Experimental: as §1, §2
# [3] = tested on: A2780 cis (human cisplatin resistant ovarian carcinoma); test: Cytotoxicity, fluorometric cell viability assay (resazurin), A2780 cis; assay type: cell-based; details: read-out: IC50 (μM) A2780 cis
# Experimental: as §1, §2
# [4] = tested on: CT-26 (mouse colon adenocarcinoma); test: Cytotoxicity, fluorometric cell viability assay (resazurin), CT-26; assay type: cell-based; details: read-out: IC50 (μM) CT-26
# Experimental: as §1, §2
# [5] = tested on: CT-26 LUC (mouse colon adenocarcinoma stably expressing luciferase); test: Cytotoxicity, fluorometric cell viability assay (resazurin), CT-26 LUC; assay type: cell-based; details: read-out: IC50 (μM) CT-26 luc
# Experimental: as §1, §2
# [6] = tested on: RPE-1 (normal retina pigmented epithelial); test: Cytotoxicity, fluorometric cell viability assay (resazurin), RPE-1; assay type: cell-based; details: read-out: IC50 (μM) RPE-1
# Experimental: as §1, §2
# HeLa cells [7] = test: Ruthenium cellular uptake and subcellular distribution by ICP-MS, HeLa; assay type: cell-based, human; details: 5 μM
# Experimental: All the treatments were set up at the same concentration for comparative purposes. The medium was then removed, the cells washed with PBS and trypsinized. […] The organelles were then isolated via differential centrifugation. To separate lysosomes, a Lysosome Isolation Kit (Cat. Nr: LYSISO1, Sigma Aldrich) as well as the manufacturer procedure with minor modification was used. Briefly, the collected pellets were redissolved in 2.0 ml of extraction buffer added with proteases cocktail (delivered with the kit) and incubated for 15 min on ice. The samples were then homogenized with a pre-chilled dounce homogenizer (7 ml, tight pestle A, 22 strokes) and centrifuged at 1000 g for 10 min at 4° C. […] These steps of the isolation procedure were monitored under phase contrast microscope on Menzel-Glaser coverslips (Olympus IX81 microscope).
# The supernatant was transferred in a fresh tube and centrifuged at 14000 g for 30 min at 4° C. […] The intact lysosomal content was proofed with Neutral-Red Reagent (delivered in the kit) with dual-wavelength absorbance mode at 460 and 510 nm over a kinetic of 3 minutes in a Spectramax M5 microplate reader (Molecular Devices). […]
# Ruthenium content of the samples was determined by means of a 7-step serial dilution in the range between 0 and 300 ppb in Ru (R>0.99) with a background equivalent concentration of BEC: 6.3 ppt and a detection limit of DL: 17 ppt. […]
# [8] = tested on: mitochondrial metabolism (oxidative phosphorylation) in CT-26 cell line; test: Seahorse Mitostress test; assay type: cell-based, mouse; details: CT-26, 1 μM, 24 h incubation
# Experimental: (§3) The preference of compound 1 to accumulate in the nucleus and mitochondria in HeLa cells inspired further studies on metabolic pathways that could be affected by the compound. For this purpose, Seahorse XF Analyzer was used. […] The effect on the other metabolic pathways, i.e. glycolysis and the possible metabolic modulation of the three primary fuel pathways, i.e. glucose, glutamine and fatty acid were then examined.
# CT-26 cells were seeded in Seahorse XFe96 well plates at a density of 30,000 cells/well in 80 μL. […] After 24 h of incubation, the regular media was removed and the cells were washed thrice using bicarbonate and serum free DMEM, supplemented with glucose, 1.8 mg/mL; 1% glutamine and 1% sodium pyruvate and incubated in a non-CO2 incubator at 37° C. for 1 h. Mitostress assay was run using Oligomycin, 1 μM, FCCP 1 μM and mixture of Antimycin-A/Rotenone 1 μM each in ports A, B and C respectively using Seahorse XFe96 Extracellular Flux Analyzer.
# [9] = tested on: glycolysis in CT-26 cells; test: Seahorse glycolytic stress test; assay type: cell-based, mouse; details: CT-26, 1 μM, 24 h incubation
# Experimental: as §3
# CT-26 cells were seeded in Seahorse XFe96 well plates at a density of 30,000 cells/well in 80 μL. […] After 24 h of incubation, the regular media was removed and the cells were washed thrice using bicarbonate, glucose and serum free DMEM, supplemented 1% glutamine and 1% sodium pyruvate and incubated in a non-CO2 incubator at 37° C. for an hour. Glycolytic stress test was run using glucose, 10 mM, Oligomycin, 1 μM and 2-Deoxyglucose, 50 mM in ports A, B and C respectively using Seahorse XFe96 Extracellular Flux Analyzer.
# [10] = tested on: fuel pathways (glucose, glutamine, fatty acid) in CT-26 cells; test: Seahorse fuel flex assay; assay type: cell-based, mouse; details: CT-26, 1 μM, 24 h incubation
# Experimental: as §3
# CT-26 cells were seeded in Seahorse XFe96 well plates at a density of 30,000 cells/well in 80 μL. […] After 24 h of incubation, the regular media was removed and the cells were washed thrice using bicarbonate, and serum free DMEM, supplemented with 1.8 mg/mL glucose, 1% glutamine and 1% sodium pyruvate and incubated in a non-CO2 incubator at 37° C. for an hour. Fuel flex assay for the different fuel pathways viz. glucose, glutamine and fatty acid was studied by measuring the basal oxygen consumption rates and that after addition of the inhibitor of the target pathway in port A and a mixture of the inhibitors of the other two pathways in port B. This gave a measure of the dependency of the cells on a fuel pathway. To study the capacity of a certain fuel pathway, the sequence of addition of the inhibitors was reversed. In port A was added the mixture of inhibitors for the other pathways and in port B was added the inhibitor for the target pathway. […]
# HeLa cells [11] = test: Annexin V/PI assay (cell death mechanism); details: 10 μM
# From the text: For this experiment, Annexin V and PI staining method were utilised on HeLa cells.^15 Staurosporin, a known inducer of apoptosis, was used as a positive control.
# [12] = Dose-finding study, maximum tolerated dose; details: healthy mice, i.p., weight loss limit 10% over 14 days
# [13] = tested on: MRC-5 (normal lung fibroblasts); test: Ruthenium cellular accumulation by ICP-MS, MRC5
# Experimental: All the fractions (mitochondria, lysosomes and nucleus) were isolated from the same cellular sample for direct comparative purposes. The supernatant phases discarded during the isolation of nuclei, lysosomes and mitochondria procedures were collected and formed the “residual” fraction. An aliquot of crude lysate after homogenization, nuclear, mitochondrial (pellet lysed via freeze and thaw cycles followed by 20 minutes incubation in ultrasonic bath), lysosomal and residual fraction was each used for protein quantification using the Bradford method. The isolated samples were then lyophilized on an Alpha 2-4 LD plus (CHRIST). The resulting samples underwent chemical digestion with 10 mL of a 2% nitrohydrochloric acid solution for 24 h. The resulting suspensions were filtered on 0.20 μm non-pyrogenic sterile Filtropur filters (Sarstedt) and the obtained samples were injected in ICP-MS.
# Ruthenium content of the samples was determined by means of a 7-step serial dilution in the range between 0 and 300 ppb in Ru (R>0.99) with a background equivalent concentration of BEC: 6.3 ppt and a detection limit of DL: 17 ppt. […] A solution of Indium (500 ppb) and Tungsten (500 ppb) was used as internal standard.
# [14] = Homo sapiens, A2780, 48 h incubation
# [15] = Homo sapiens, A2780 ADR, 48 h; read-out: IC50 (μM) A2780 ADR
# [16] = Homo sapiens, A2780cis, A2780 cis (cisplatin resistant), 48 h incubation
# [17] = Mus musculus, CT26, CT-26, 48 h incubation
# [18] = Mus musculus, CT26, CT-26 luc, 48 h incubation
# [19] = Homo sapiens, RPE-1 normal cells, 48 h incubation
# [20] = A2780 ADR (doxorubicin resistant), 48 h incubation; read-out: IC50 (μM) A2780 ADR
# [21] = A2780 cis (cisplatin resistant), 48 h incubation
# [22] = RPE-1 normal cells, 48 h incubation
Compound,"IC50 (HeLa (human cervical); Homo sapiens, 48 h incubation) [µM]","IC50 [1, 14] [µM]","IC50 [2, 15] [µM]","IC50 [3, 16] [µM]","IC50 [4, 17] [µM]","IC50 [5, 18] [µM]","IC50 [6, 19] [µM]",further results
COc1cccc(O)c1O [3-methoxycatechol],56.2 ± 4.18,18.7 ± 1.17,30.1 ± 1.35,36.5 ± 1.94,45.7 ± 4.21,36.4 ± 6.28,> 100,
Cc1cccc(O)c1O [3-methylcatechol],> 100,9.99 ± 1.26,2.71 ± 0.82,14.7 ± 0.69,17.5 ± 0.73,12.1 ± 1.4,> 100,
Cc1ccc(O)c(O)c1 [4-methylcatechol],> 100,15.2 ± 1,29.3 ± 1.96,34.6 ± 1.49,34.4 ± 1.41,33.3 ± 3.4,> 100,
O=[N+]([O-])c1ccc(O)c(O)c1 [4-nitrocatechol],> 100,30.9 ± 2.05,61.5 ± 3.63,> 100,17.5 ± 1.02,15.3 ± 1,45 ± 19,
CC(C)(C)c1ccc(O)c(O)c1 [4-tertbutylcatechol],93.1 ± 9.8,9.14 ± 0.7,12.9 ± 1.2,14.6 ± 0.81,9.94 ± 0.63,9.72 ± 0.67,55.1 ± 4.64,
COc1cccc2c1C(=O)c1c(O)c3c(c(O)c1C2=O)C[C@@](O)(C(=O)CO)C[C@@H]3O[C@H]1C[C@H](N)[C@H](O)[C@H](C)O1 [Doxorubicin],0.34 ± 0.02,0.19 ± 0.03,5.94 ± 0.58,0.54 ± 0.04,0.082 ± 0.003,,0.89 ± 0.17,
"Cc1occc(=O)c1O [Maltol, 3-Hydroxy-2-methyl-4H-pyran-4-one]",74 ± 14.6,> 100,> 100,> 100,> 100,> 100,> 100,
[Cl-].[Cl-].[Ru+2].c1ccc(-c2ccnc3c2ccc2c(-c4ccccc4)ccnc23)cc1.c1ccc(-c2ccnc3c2ccc2c(-c4ccccc4)ccnc23)cc1 [Ru(DIP)2Cl2],,,,,,,,"IC50 (HeLa (human cervical); 48 h incubation): 15 ± 0.4 µM; IC50 ([1]; A2780, 48 h incubation): 4.69 ± 0.14 µM; IC50 [2, 20]: 78.3 ± 4.9 µM; IC50 [3, 21]: 6.36 ± 0.57 µM; IC50 ([4]; CT-26, 48 h incubation): 9.2 ± 1.22 µM; IC50 ([5]; CT-26 luc, 48 h incubation): 6.65 ± 0.5 µM; IC50 [6, 22]: 3.13 ± 0.07 µM"
Oc1c(O)c(Br)c(Br)c(Br)c1Br [Tetrabromocatechol],,,,,,,,"IC50 (HeLa (human cervical); Homo sapiens, 48 h): 29.9 ± 1.6 µM; IC50 ([1]; Homo sapiens, A2780, 48 h): 8.75 ± 0.2 µM; IC50 ([2]; Homo sapiens, A2780 ADR, 48 h, read-out: IC50 (μM) A2780 ADR): 14.4 ± 1.18 µM; IC50 ([3]; Homo sapiens, A2780cis, 48 h): 13.6 ± 0.88 µM; IC50 ([4]; Mus musculus, CT26, 48 h): 5.53 ± 0.37 µM; IC50 ([5]; Mus musculus, CT26, 48 h): 3.8 ± 0.34 µM; IC50 ([6]; Homo sapiens, RPE-1, 48 h): 13.5 ± 1.7 µM"
Oc1ccccc1O [catechol],> 100,22.4 ± 5.83,> 100,56 ± 9.46,16,11.5 ± 0.4,> 100,
Ru(DIP)2(4-Nitrocat) [Compound 8],,,,,,,,"IC50 (HeLa (human cervical); 48 h incubation): 10 ± 0.44 µM; IC50 ([1]; A2780, 48 h incubation): 12.4 ± 0.8 µM; IC50 [2, 20]: 18.6 ± 2.02 µM; IC50 [3, 21]: 16.4 ± 2.04 µM; IC50 ([4]; CT-26, 48 h incubation): 7.61 ± 0.11 µM; IC50 ([5]; CT-26 luc, 48 h incubation): 9.01 ± 0.19 µM; IC50 [6, 22]: 16.6 ± 0.98 µM"
[Ru(DIP)2(Sq)](PF6) [Compound 1],,,,,,,,"subcellular accumulation of ruthenium (HeLa cells [7]; 2 h, fractionated): preferential accumulation inside the nucleus; cellular uptake (internalization) (HeLa cells [7]; after 2 h): Near complete internalization; ATP production [8]: inhibited; mitochondrial respiration [8]: severely impaired; glycolysis of the cells [9]: not affected; effect on the 3 primary fuel pathways [10]: no direct effect; induction of apoptosis/necrosis (HeLa cells [11]; 30 min after treatment): induces apoptosis; type of cell death (HeLa cells [11]; 4 h or 24 h incubation): apoptosis as a main type of the cell death; maximum tolerated dose (MTD) [12]: 15 mg/kg of body weight; compound taken up by healthy cells [13]: less than 25%"
[Ru(DIP)2(Tetrabromocat)] [Compound 5],,,,,,,,"IC50 (HeLa (human cervical); 48 h incubation): 10.5 ± 0.25 µM; IC50 ([1]; A2780, 48 h incubation): 10.2 ± 0.14 µM; IC50 [2, 20]: 15 ± 0.75 µM; IC50 [3, 21]: 17.2 ± 1.4 µM; IC50 ([4]; CT-26, 48 h incubation): 10.5 ± 0.5 µM; IC50 ([5]; CT-26 luc, 48 h incubation): 11.6 ± 0.7 µM; IC50 [6, 22]: 23.2 ± 2.5 µM"
